26 compounds from patent publication US20220339144A1, “PYRIDINYL INDOLE COMPOUNDS AND METHODS OF USE THEREOF” (Chinook Therapeutics Canada, Inc., priority 2021, published 2022) can be followed below.

In one test the target is T1, AMPKα1β1γ1 (Homo sapiens, UniProt Q13131+Q9Y478).
T1 construct: purchased Carna Biosciences 02-113
The test is described as follows: AMPKα1β1γ1 biochemical assay (LabChip EZ Reader mobility shift). Particulars: EC50 of Table 1; activation, normalized to DMSO vehicle control; read-out: Human AMPK AMPKα1β1γ1 EC50. As to the method:
(§1) Compounds disclosed herein were evaluated for their ability to activate AMPKα1β1γ1 by measuring phosphorylation of a commercially available fluorescent AMPK substrate using the LabChip® EZ Reader microfluidic system that is based on a mobility shift principle in which unphosphorylated fluorescent substrates may be separated and distinguished from phosphorylated fluorescent substrates due to the difference in negative charge. Briefly, compounds were serial diluted 3-fold in 100% DMSO for an 11-point dose-response curve. A 20 nL aliquot of diluted compound was transferred into a 384-well plate using a liquid handler (Labcyte Inc., Echo 550). A pre-prepared solution (10 mM MgCl2, 0.01% Brij-35, 2 mM DTT, 0.05% BSA, 1 mM EGTA, and 50 mM HEPES pH 7.5) was combined with 0.83 nM AMPKα1β1γ1 (Carna Biosciences, 02-113). The enzyme solution (15 μL) was aliquoted into each well and the plate was incubated at 24° C. for 30 min. A second stock solution (10 mM MgCl2, 0.01% Brij-35, 2 mM DTT, 0.05% BSA, 1 mM EGTA, 800 μM ATP, and 50 mM HEPES pH 7.5) was combined with 6 μM fluorescent peptide substrate for AMPKal (Perkin Elmer, 760351). The kinase reaction was initiated by adding 5 μL of the second solution containing substrate and ATP to each well. The plate was incubated at 24° C. for 90 minutes and 75 μL of 0.5 M EDTA was added to terminate the reaction. The plates were analyzed using a LabChip® EZ Reader (Perkin Elmer, 122919) and the effective concentration to achieve 50% of the maximal activity (EC50) was calculated after normalizing to the DMSO vehicle control.

The next test deals with T2, AMPKα1β2γ1 (Homo sapiens, UniProt O43741+Q13131).
T2 construct: purchased Carna Biosciences (printed only as 'Biosciences') 02-147
Briefly: AMPKα1β2γ1 biochemical assay (LabChip EZ Reader mobility shift). Conditions: second EC50 column of Table 1 (head repeats α1β1γ1; text says α1β2γ1 isoform); read-out: Human AMPK AMPKα1β1γ1 EC50. As to the method:
as §1
The same procedure above was also used to measure activation of the AMPKα1β2γ1 isoform, replacing AMPKα1β1γ1 with AMPKα1β2γ1 Biosciences 02-147).

T2 sequence (Q13131 whole entry): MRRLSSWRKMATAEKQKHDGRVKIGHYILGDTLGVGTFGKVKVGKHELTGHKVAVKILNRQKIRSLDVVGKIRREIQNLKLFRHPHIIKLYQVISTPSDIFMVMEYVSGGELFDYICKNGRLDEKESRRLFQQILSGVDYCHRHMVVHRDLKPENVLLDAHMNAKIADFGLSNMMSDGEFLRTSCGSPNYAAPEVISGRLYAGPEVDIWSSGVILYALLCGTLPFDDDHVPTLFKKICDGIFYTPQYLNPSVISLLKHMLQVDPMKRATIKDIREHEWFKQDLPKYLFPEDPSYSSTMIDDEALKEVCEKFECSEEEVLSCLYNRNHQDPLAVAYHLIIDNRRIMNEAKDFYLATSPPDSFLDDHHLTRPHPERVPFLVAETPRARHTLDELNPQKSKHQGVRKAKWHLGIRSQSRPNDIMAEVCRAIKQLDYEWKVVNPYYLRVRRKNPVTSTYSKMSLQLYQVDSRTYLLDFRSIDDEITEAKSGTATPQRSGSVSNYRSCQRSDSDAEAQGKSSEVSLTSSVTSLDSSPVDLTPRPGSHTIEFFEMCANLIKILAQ
T2 sequence (O43741 whole entry): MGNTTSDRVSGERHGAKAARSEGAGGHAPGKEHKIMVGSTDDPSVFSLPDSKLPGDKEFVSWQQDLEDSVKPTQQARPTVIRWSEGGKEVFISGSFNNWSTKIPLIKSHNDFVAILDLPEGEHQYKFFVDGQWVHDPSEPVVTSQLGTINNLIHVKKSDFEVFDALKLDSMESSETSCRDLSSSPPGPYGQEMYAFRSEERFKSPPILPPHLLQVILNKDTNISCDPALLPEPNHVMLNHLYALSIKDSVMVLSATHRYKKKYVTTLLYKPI
T2 sequence (P54619 whole entry partner): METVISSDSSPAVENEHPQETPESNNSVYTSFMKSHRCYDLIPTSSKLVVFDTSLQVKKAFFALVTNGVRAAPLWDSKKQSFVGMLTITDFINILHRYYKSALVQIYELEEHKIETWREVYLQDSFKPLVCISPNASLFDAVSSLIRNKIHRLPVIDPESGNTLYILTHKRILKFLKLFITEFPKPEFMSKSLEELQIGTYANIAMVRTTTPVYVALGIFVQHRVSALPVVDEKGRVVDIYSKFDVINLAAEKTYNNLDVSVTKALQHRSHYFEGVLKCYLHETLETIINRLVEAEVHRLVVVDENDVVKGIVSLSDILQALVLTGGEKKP
T1 sequence (Q13131 whole entry): as the sequence (Q13131 whole entry) above
T1 sequence (Q9Y478 whole entry): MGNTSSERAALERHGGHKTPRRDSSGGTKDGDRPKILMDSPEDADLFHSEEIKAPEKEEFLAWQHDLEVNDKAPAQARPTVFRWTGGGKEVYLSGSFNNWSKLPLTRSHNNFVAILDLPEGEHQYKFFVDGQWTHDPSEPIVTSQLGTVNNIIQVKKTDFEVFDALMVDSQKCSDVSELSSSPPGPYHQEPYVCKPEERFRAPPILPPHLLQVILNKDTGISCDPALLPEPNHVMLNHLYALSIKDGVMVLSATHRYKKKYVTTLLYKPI
T1 sequence (P54619 whole entry partner): as the sequence (P54619 whole entry partner) above

As usually defined, the EC50 is the concentration at which the effect is half-maximal. As for `COc1nc(N2CCC3(CCOC3)C2)ccc1-c1cc2c(C(=O)O)c[nH]c2cc1Cl` (racemic) [Example 37, racemic-6-chloro-5-(2-methoxy-6-(2-oxa-7-azaspiro [4.4]nonan-7-yl)pyridin-3-yl)-1H-indole-3-carboxylic acid], at AMPKα1β1γ1, the EC50 lay in the range of 100 to 250 nM.

As to `COc1nc(N2CC3(CNC(=O)C3)C2)ccc1-c1cc2c(C(=O)O)c[nH]c2cc1Cl` [Example 19, 6-chloro-5-(2-methoxy-6-(7-oxo-2,6-diazaspiro[3.4]octan-2-yl)pyridin-3-yl)-1H-indole-3-carboxylic acid], the results for the concentration for a half-maximal effect (EC50) at AMPKα1β2γ1 and on AMPKα1β1γ1 were above 10000 nM and at most 50 nM, respectively.

Take `COc1nc(N2CC3(CCC(=O)N3)C2)ccc1-c1cc2c(C(=O)O)c[nH]c2cc1Cl` [Example 17, 6-chloro-5-(2-methoxy-6-(6-oxo-2,5-diazaspiro[3.4]octan-2-yl)pyridin-3-yl)-1H-indole-3-carboxylic acid]: the EC50 on AMPKα1β2γ1 was above 10000 nM; at AMPKα1β1γ1 it was 50 to 100 nM.

In the case of `COc1nc(N2C[C@@H]3[C@H](C2)[C@H]3OC)ccc1-c1cc2c(C(=O)O)c[nH]c2cc1Cl` [Example 23, 6-chloro-5-(2-methoxy-6-((trans)-6-methoxy-3-azabicyclo[3.1.0]hexan-3-yl)pyridin-3-yl)-1H-indole-3-carboxylic acid], the EC50 on AMPKα1β2γ1 is above 10000 nM; on AMPKα1β1γ1, 50 to 100 nM.

As to `COc1nc(N2CC3(CCOC3)C2)ccc1-c1cc2c(C(=O)O)c[nH]c2cc1Cl` [Example 21, 6-chloro-5-(2-methoxy-6-(6-oxa-2-azaspiro[3.4]octan-2-yl)pyridin-3-yl)-1H-indole-3-carboxylic acid], the values for the 50% effective concentration (EC50) at AMPKα1β2γ1 and on AMPKα1β1γ1 were above 10000 nM and at most 50 nM, respectively.

Turning to `COc1nc(N2CC3(COC3)C2)ccc1-c1cc2c(C(=O)O)c[nH]c2cc1Cl` [Example 1, 6-chloro-5-(2-methoxy-6-(2-oxa-6-azaspiro[3.3]heptan-6-yl)pyridin-3-yl)-1H-indole-3-carboxylic Acid], the results for the EC50 at AMPKα1β2γ1 and at AMPKα1β1γ1 were above 10000 nM and at most 50 nM, respectively.

`COc1nc(N2CCC3(CCOCC3)C2)ccc1-c1cc2c(C(=O)O)c[nH]c2cc1Cl` [Example 35, 6-chloro-5-(2-methoxy-6-[8-oxa-2-azaspiro[4.5]decan-2-yl]pyridin-3-yl)-1H-indole-3-carboxylic acid]: the EC50 on AMPKα1β1γ1 was 100 to 250 nM.

For the compound `COc1nc(N2CC3CC2CO3)ccc1-c1cc2c(C(=O)O)c[nH]c2cc1Cl` (racemic) [Example 2, rac-5-(6-(2-oxa-5-azabicyclo[2.2.1]heptan-5-yl)-2-methoxypyridin-3-yl)-6-chloro-1H-indole-3-carboxylic acid], the 50% effective concentration (EC50) on AMPKα1β1γ1 was 100 to 250 nM.

With `COc1nc(N2C[C@H]3COC[C@H]3C2)ccc1-c1cc2c(C(=O)O)c[nH]c2cc1Cl` [Example 27, 6-chloro-5-(2-methoxy-6-((cis)-tetrahydro-1H-furo[3,4-c]pyrrol-5(3H)-yl)pyridin-3-yl)-1H-indole-3-carboxylic Acid], the 50% effective concentration (EC50) was above 10000 nM at AMPKα1β2γ1 and 50 to 100 nM at AMPKα1β1γ1.

In the case of `COc1nc(N2C[C@H]3CCO[C@H]3C2)ccc1-c1cc2c(C(=O)O)c[nH]c2cc1Cl` (racemic) [Example 28, racemic-6-chloro-5-(6-((cis)-hexahydro-5H-furo[2,3-c]pyrrol-5-yl)-2-methoxypyridin-3-yl)-1H-indole-3-carboxylic acid], the figures for the EC50 on AMPKα1β2γ1 and on AMPKα1β1γ1 were above 10000 nM and at most 50 nM, respectively.

Regarding `COc1nc(N2CC3(CC(NC(=O)OC(C)(C)C)C3)C2)ccc1-c1cc2c(C(=O)O)c[nH]c2cc1Cl` [Example 7, 5-(6-(6-((tert-butoxycarbonyl)amino)-2-azaspiro[3.3]heptan-2-yl)-2-methoxypyridin-3-yl)-6-chloro-1H-indole-3-carboxylic acid], at AMPKα1β1γ1, the concentration giving a half-maximal response (EC50) is at most 50 nM.

As for `COc1nc(N2CC3CCC2CO3)ccc1-c1cc2c(C(=O)O)c[nH]c2cc1Cl` (racemic) [Example 30, racemic-5-(6-(2-oxa-5-azabicyclo[2.2.2]octan-5-yl)-2-methoxypyridin-3-yl)-6-chloro-1H-indole-3-carboxylic acid], the concentration for a half-maximal effect (EC50) at AMPKα1β1γ1 was in the range of 100 to 250 nM.

With `COc1nc(N2CC3(CN(C(=O)OC(C)(C)C)C3)C2)ccc1-c1cc2c(C(=O)O)c[nH]c2cc1Cl` [Example 6, 5-(6-(6-(tert-butoxycarbonyl)-2,6-diazaspiro[3.3]heptan-2-yl)-2-methoxypyridin-3-yl)-6-chloro-1H-indole-3-carboxylic acid], the EC50 is above 10000 nM on AMPKα1β2γ1 and 50 to 100 nM on AMPKα1β1γ1.

As for `COc1nc(N2CC3(CC(N)C3)C2)ccc1-c1cc2c(C(=O)O)c[nH]c2cc1Cl` [Example 10, 5-(6-(6-amino-2-azaspiro[3.3]heptan-2-yl)-2-methoxypyridin-3-yl)-6-chloro-1H-indole-3-carboxylic Acid], the values for the EC50 at AMPKα1β2γ1 and on AMPKα1β1γ1 were above 10000 nM and at most 50 nM, respectively.

For `COc1nc(N2CC3CC(C2)O3)ccc1-c1cc2c(C(=O)O)c[nH]c2cc1Cl` [Example 39, 5-(6-(6-oxa-3-azabicyclo[3.1.1]heptan-3-yl)-2-methoxypyridin-3-yl)-6-chloro-1H-indole-3-carboxylic acid], the EC50 on AMPKα1β1γ1 was at most 50 nM.

Regarding `COc1nc(N2CCC3(COC3)C2)ccc1-c1cc2c(C(=O)O)c[nH]c2cc1Cl` [Example 5, 6-chloro-5-(2-methoxy-6-(2-oxa-6-azaspiro[3.4]octan-6-yl)pyridin-3-yl)-1H-indole-3-carboxylic acid], the EC50 was above 10000 nM on AMPKα1β2γ1 and at most 50 nM at AMPKα1β1γ1.

With `COc1nc(N2C[C@H]3COC[C@@H]3C2)ccc1-c1cc2c(C(=O)O)c[nH]c2cc1Cl` [Example 34, 6-chloro-5-(2-methoxy-6-((3aS,6aS)-tetrahydro-1H-furo[3,4-c]pyrrol-5(3H)-yl)pyridin-3-yl)-1H-indole-3-carboxylic acid], the figures for the EC50 at AMPKα1β2γ1 and on AMPKα1β1γ1 were 250 to 10000 nM and at most 50 nM, respectively.

Consider `COc1nc(N2CC3(CCS3(=O)=O)C2)ccc1-c1cc2c(C(=O)O)c[nH]c2cc1Cl` [Example 16, 6-chloro-5-(6-(1,1-dioxido-1-thia-6-azaspiro[3.3]heptan-6-yl)-2-methoxypyridin-3-yl)-1H-indole-3-carboxylic acid], for which the EC50 at AMPKα1β1γ1 is at most 50 nM.

Turning to `COc1nc(N2CC3(CCOCC3)C2)ccc1-c1cc2c(C(=O)O)c[nH]c2cc1Cl` [Example 36, 6-chloro-5-(2-methoxy-6-(7-oxa-2-azaspiro[3.5]nonan-2-yl)pyridin-3-yl)-1H-indole-3-carboxylic acid], the EC50 at AMPKα1β1γ1 is 100 to 250 nM.

Turning to `COc1nc(N2CC3(CNC3)C2)ccc1-c1cc2c(C(=O)O)c[nH]c2cc1Cl` [Example 11, 6-chloro-5-(2-methoxy-6-(2,6-diazaspiro[3.3]heptan-2-yl)pyridin-3-yl)-1H-indole-3-carboxylic acid], the EC50 on AMPKα1β1γ1 is 50 to 100 nM.

`COc1nc(N2CC3CCC(C2)O3)ccc1-c1cc2c(C(=O)O)c[nH]c2cc1Cl` (racemic) [Example 29, racemic-5-(6-(8-oxa-3-azabicyclo[3.2.1]octan-3-yl)-2-methoxypyridin-3-yl)-6-chloro-1H-indole-3-carboxylic acid]: the EC50 on AMPKα1β1γ1 lay within 100 to 250 nM.

As for `COc1nc(N2CC3(COC3)C2)ccc1-c1cc2c(C(=O)O)c[nH]c2cc1F` [Example 40, 6-fluoro-5-(2-methoxy-6-[2-oxa-6-azaspiro[3.3]hentan-6-yl]pyridin-3-yl)-1H-indole-3-carboxylic Acid], the EC50 at AMPKα1β1γ1 lay within 100 to 250 nM.

As to `COc1nc(N2CC3COC(C3)C2)ccc1-c1cc2c(C(=O)O)c[nH]c2cc1Cl` (racemic) [Example 20, racemic-5-(6-(6-oxa-3-azabicyclo[3.2.1]octan-3-yl)-2-methoxypyridin-3-yl)-6-chloro-1H-indole-3-carboxylic acid], on AMPKα1β1γ1, the EC50 fell in the range of 50 to 100 nM.

Regarding `COc1nc(N2C[C@H]3C[C@H]3C2)ccc1-c1cc2c(C(=O)O)c[nH]c2cc1Cl` [Example 14, 5-(6-(3-azabicyclo[3.1.0]hexan-3-yl)-2-methoxypyridin-3-yl)-6-chloro-1H-indole-3-carboxylic acid], the 50% effective concentration (EC50) at AMPKα1β1γ1 fell in the range of 50 to 100 nM.

Consider `COc1nc(N2C[C@@H]3COC[C@H]3C2)ccc1-c1cc2c(C(=O)O)c[nH]c2cc1Cl` (racemic) [Example 32, racemic-6-chloro-5-(2-methoxy-6-((trans)tetrahydro-1H-furo[3,4-c]pyrrol-5(3H)-yl)pyridin-3-yl)-1H-indole-3-carboxylic acid], for which, on AMPKα1β1γ1, the EC50 is at most 50 nM.

Regarding `COc1nc(N2CCC3(CCO3)CC2)ccc1-c1cc2c(C(=O)O)c[nH]c2cc1Cl` (racemic) [Example 31, racemic-6-chloro-5-(2-methoxy-6-(1-oxa-7-azaspiro [3.5]nonan-7-yl)pyridin-3-yl)-1H-indole-3-carboxylic acid], on AMPKα1β1γ1, the EC50 lay in the range of 50 to 100 nM.
